Where two headings read alike, the source gives them in different places.
Tested on: PKC mediated IL-2 production
Assay: IL-2 ELISA, human primary T cell, anti CD3+CD28+ (whole cell functional assay)
Assay type: cell-based
Protocol: Human primary T cells were prepared as follows. Fresh PBMC's from All Cells (Cat # PB002) were re-suspended in RPMI (RPMI-1640 with L-Glutamine; Mediatech, Inc., Herndon Va., cat. #10-040-CM) with 10% FBS and seeded into flasks and incubated at 37° C. for 2 hours to allow the monocytes to adhere. The non-adherent cells were then centrifuged and re-suspended in RPMI medium containing 40 U/ml IL2 and seeded into a flask pre-coated with 1 μg/ml aCD3 and 5 ug/ml aCD28 (Anti-Human CD3, BD Pharmingen Catalog #555336, Anti-Human CD28, Beckman Coulter Catalog # IM1376). The cells were stimulated for 3-4 days, then transferred to a fresh flask and maintained in RPMI (RPMI-1640 with L-Glutamine; Mediatech, Inc., Herndon Va., cat. #10-040-CM) with 10% FBS and 40 U/ml IL-2.
(§1) Human primary T cells (100,000 cells per well) were pre-incubated with or without test compound in RPMI-1640 with L-Glutamine and 10% FBS for 1 hour at 37° C. Cells were then stimulated by transferring them to round-bottom 96-well plates pre-coated with 1 μg/ml αCD3 and 5 μg/ml αCD28. For counter assay, cells were instead stimulated by adding 8× stock solutions of PMA and ionomycin in RPMI-1640 with L-Glutamine and 10% FBS (for final concentrations of 0.5 ng/ml PMA and 0.1 μM ionomycin, both from Calbiochem). Cells were incubated at 37° C. for 24 hours before 100 μL supernatants were harvested for quantification of IL-2 by ELISA using Human IL-2 Duoset ELISA Kit from R and D Systems, Cat. # DY202E.
Compounds 1-90 were tested in a whole cell functional assay for PKC mediated IL-2 production as follows. Human primary T cell isolation and culture: Human primary T cells were prepared as follows. Whole blood was obtained from a healthy volunteer, mixed 1:1 with PBS, layered on to Ficoll Hypaque (Amersham Pharmacia Biotech, Piscataway, N.J., Catalog #17-1440-03) in 2:1 blood/PBS:ficoll ratio and centrifuged for 30 minutes at 4° C. at 1750 rpm. The cells at the serum: ficoll interface were recovered and washed twice with 5 volumes of PBS. These freshly isolated human peripheral blood mononuclear cells were cultured in Yssel's medium containing 40 U/ml IL2 in a flask pre-coated with 1 μg/ml αCD3 and 5 μg/ml αCD28 (Anti-Human CD3, BD Pharmingen Catalog #555336, Anti-Human CD28, Beckman Coulter Catalog # IM1376). The cells were stimulated for 3-4 days, then transferred to a fresh flask and maintained in RPMI (RPMI-1640 with L-Glutamine; Mediatech, Inc., Herndon Va., cat. #10-040-CM) with 10% FBS and 40 U/ml IL-2. The primary T-cells were then washed twice with PBS to remove the IL-2.
as §1, with “Primary T cell stimulation and IL2 ELISA: Human primary” for “Human primary”, “compound in Yssel's medium for 1” for “compound in RPMI-1640 with L-Glutamine and 10% FBS for 1”, “ionomycin in Yssels (for final” for “ionomycin in RPMI-1640 with L-Glutamine and 10% FBS (for final”, “and 0.1 uM ionomycin, both” for “and 0.1 μM ionomycin, both”

[1] = IL-2 production, human primary T cells stimulated with αCD3 and αCD28, 24 hours, IL-2 by ELISA, read-out: EC50
[2] = Homo sapiens, T-cell, 24 h, IL-2 production, human primary T cells stimulated with αCD3 and αCD28, 24 hours, IL-2 by ELISA, read-out: EC50
[3] = Homo sapiens, T-cell, human primary T cells stimulated with αCD3 and αCD28, IL-2 by ELISA, read-out: EC50 (blocked IL-2 production)

EC50 [1] [µM] | EC50 [2] [µM] | EC50 [3] [µM] | SMILES
< 10 | – | – | Cn1nnn(-c2cc(Nc3ncc(F)c(N[C@@H]4CCN5C(CCC5(C)C)C4)n3)c(F)cc2C2CC2)c1=O (mixture of isomers) [Compound 25]
– | < 0.5 | < 10 | Fc1cc(C2CC2)c(-n2cnnn2)cc1Nc1ncc(F)c(NC2CCN3CCCC3C2)n1 (racemic) [Compound 24, (±)-N^2-(4-cyclopropyl-2-fluoro-5-(1H-tetrazol-1-yl)phenyl)-5-fluoro-n^4-(octahydroindolizin-7-yl)pyrimidine-2,4-diamine]
– | < 10 | < 10 | Cn1nnn(-c2cc(Nc3ncc(F)c(NC4CCN5CCCC5C4)n3)c(F)cc2C2CC2)c1=O (racemic) [Compound 27, (±)-1-(5-(5-fluoro-4-(octahydroindolizin-7-ylamino)pyrimidin-2-ylamino)-2-cyclopropyl-4-fluorophenyl)-4-methyl-1H-tetrazol-5(4H)one]
– | < 0.1 | < 10 | Cc1nnnn1-c1cc(Nc2ncc(F)c(NC3CCN4CCCC4C3)n2)c(F)cc1C1CC1 (racemic) [Compound 28, (±)-N2-(4-cyclopropyl-2-fluoro-5-(5-methyl-1H-tetrazol-1-yl)phenyl)-5-fluoro-n^4-(octahydroindolizin-7-yl)pyrimidine-2,4-diamine]
– | < 10 | < 10 | Cn1nnn(-c2cc(Nc3ncc(F)c(N[C@@H]4C[C@@H]5CCC(=O)N5C(C)(C)C4)n3)c(F)cc2C2CC2)c1=O (racemic) [Compound 31, 1-(5-(5-fluoro-4-(hexahydro-5,5-dimethylindolizin-3(5H)-one-7-ylamino)pyrimidin-2-ylamino)-2-cyclopropyl-4-fluorophenyl)-4-methyl-1H-tetrazol-5(4H)-one]
– | < 10 | < 10 | Cn1nnn(-c2cc(Nc3ncc(F)c(N[C@H]4C[C@@H]5CCC(=O)N5C(C)(C)C4)n3)c(F)cc2C2CC2)c1=O (racemic) [Compound 32, 1-(5-(5-fluoro-4-(hexahydro-5,5-dimethylindolizin-3(5H)-one-7-ylamino)pyrimidin-2-ylamino)-2-cyclopropyl-4-fluorophenyl)-4-methyl-1H-tetrazol-5(4H)-one]
– | < 0.5 | < 10 | Cn1nnn(-c2cc(Nc3ncc(F)c(NC4CC5CCCN5C(C)(C)C4)n3)ccc2OC2CCOCC2)c1=O (racemic) [Compound 51, 1-(5-(5-fluoro-4-(octahydro-5,5-dimethylindolizin-7-ylamino)pyrimidin-2-ylamino)-2-(tetrahydro-2H-pyran-4-oxy)phenyl)-4-methyl-1H-tetrazol-5(4H)-one]
– | – | < 10 | CC1(C)C[C@H](Nc2nc(Nc3cc(-n4cnnn4)c(C4CC4)cc3F)ncc2F)C[C@@H]2CCCN21 (racemic) [Compound 53, (±)-N2-(4-cyclopropyl-2-fluoro-5-(1H-tetrazol-1-yl)phenyl)-5-fluoro-n^4-(octahydro-5,5-dimethylindolizin-7-yl)pyrimidine-2,4-diamine]
< 0.1 | – | – | CC1(C)CC(Nc2nc(Nc3cc(-n4cnnn4)c(C4CC4)cc3F)ncc2F)CC2CCCN21 (racemic) [Compound 54, (±)-N2-(4-cyclopropyl-2-fluoro-5-(1H-tetrazol-1-yl)phenyl)-5-fluoro-n^4-(octahydro-5,5-dimethylindolizin-7-yl)pyrimidine-2,4-diamine]
< 0.5 | – | – | CC1(C)CC(Nc2nc(Nc3cc(-n4cnnn4)c(C4CC4)cc3F)ncc2F)CC2CCCN21 (racemic) [Compound 55, (±)-N2-(4-cyclopropyl-2-fluoro-5-(1H-tetrazol-1-yl)phenyl)-5-fluoro-n^4-(octahydro-5,5-dimethylindolizin-7-yl)pyrimidine-2,4-diamine]
– | < 0.1 | < 10 | CC1(C)C[C@H](Nc2nc(Nc3cc(-n4cnnn4)c(C4CC4)cc3F)ncc2C#N)C[C@@H]2CCCN21 (racemic) [Compound 56, (±)-2-(4-cyclopropyl-2-fluoro-5-(1H-tetrazol-1-yl)phenylamino)-4-(octahydro-5,5-dimethylindolizin-7-ylamino)pyrimidine-5-carbonitrile]
– | < 10 | < 10 | Cn1nnn(-c2cc(Nc3ncc(F)c(NC4CCN5C(CCC5(C)C)C4)n3)c(F)cc2C2CC2)c1=O (single isomer, unassigned) [Compound 34, 1-(5-(5-fluoro-4-(octahydro-3,3-dimethylindolizin-7-ylamino)pyrimidin-2-ylamino)-2-cyclopropyl-4-fluorophenyl)-4-methyl-1H-tetrazol-5(4H)-one]
< 10 | – | – | Cn1nnn(-c2cc(Nc3ncc(F)c(N[C@@H]4CCN5[C@@H](CCC5(C)C)C4)n3)c(F)cc2C2CC2)c1=O (single isomer, unassigned) [Compound 36]
< 10 | – | – | Cn1nnn(-c2cc(Nc3ncc(F)c(N[C@H]4CCN5[C@@H](CCC5(C)C)C4)n3)c(F)cc2C2CC2)c1=O (single isomer, unassigned) [Compound 37]
– | < 0.5 | < 10 | CC1(C)CC(Nc2nc(Nc3ccc(OC4CCOCC4)c(C#N)c3)ncc2F)CC2CCCN21 (single isomer, unassigned) [Compound 41, 5-(5-fluoro-4-(octahydro-5,5-dimethylindolizin-7-ylamino)pyrimidin-2-ylamino)-2-(tetrahydro-2H-pyran-4-yloxy)benzonitrile]
< 10 | – | < 10 | CC1(C)CC(Nc2nc(Nc3ccc(O[C@@H]4CCOC4)c(C#N)c3)ncc2F)CC2CCCN21 (single isomer, unassigned) [Compound 58]
< 0.5 | – | – | CC1(C)CC(Nc2nc(Nc3ccc(O[C@@H]4CCOC4)c(C#N)c3)ncc2F)CC2CCCN21 (single isomer, unassigned) [Compound 59]
– | < 1 | < 10 | CC1(C)CC(Nc2nc(Nc3ccc(O[C@H]4CCOC4)c(C#N)c3)ncc2F)CC2CCCN21 (single isomer, unassigned) [Compound 61]
< 0.5 | – | – | CC1(C)CC(Nc2nc(Nc3ccc(O[C@H]4CCOC4)c(C#N)c3)ncc2F)CC2CCCN21 (single isomer, unassigned) [Compound 62]
– | < 0.5 | < 10 | CC1(C)CC(Nc2nc(Nc3ccc(OC4COC4)c(C#N)c3)ncc2F)CC2CCCN21 (single isomer, unassigned) [Compound 63, 5-(5-fluoro-4-(octahydro-5,5-dimethylindolizin-7-ylamino)pyrimidin-2-ylamino)-2-(oxetan-3-yloxy)benzonitrile]

SMILES | EC50 [1] [µM] | EC50 [2] [µM] | EC50 [3] [µM]
Cn1nnn(-c2cc(Nc3ncc(F)c(NC4CC5CCCN5C(C)(C)C4)n3)ccc2OC2COC2)c1=O (racemic) [Compound 38, 1-(5-(5-fluoro-4-(octahydro-5,5-dimethylindolizin-7-ylamino)pyrimidin-2-ylamino)-2-(oxetan-3-yloxy)phenyl)-4-methyl-1H-tetrazol-5(4H)-one] | < 0.5 | – | –
Cn1nnn(-c2cc(Nc3ncc(F)c(NC4CC5CCCN5C(C)(C)C4)n3)ccc2OC2COC2)c1=O (single isomer, unassigned) [Compound 39, 1-(5-(5-fluoro-4-(octahydro-5,5-dimethylindolizin-7-ylamino)pyrimidin-2-ylamino)-2-(oxetan-3-yloxy)phenyl)-4-methyl-1H-tetrazol-5(4H)-one] | < 0.5 | – | < 10

Reference: patent US10792282B2, “Protein kinase C inhibitors and uses thereof” (Rigel Pharmaceuticals, Inc., priority 2013, dated 2020)
